Literature values as cited in patent US20240316072A1, “THERAPEUTIC COMPOSITIONS, […] METHODS OF PREPARATION AND USE THEREOF” (Unique Flower LLC, priority 2023, published 2024).

Conditions: administration of β-Myrcene in the amount of 0.5 mg/g or more; generally understood

C=CC(=C)CCC=C(C)C [β-Myrcene]
effect in a subject: heavy, narcotic, “couch lock” effect
